The source of these data is ChEMBL document CHEMBL4330078, “Discovery of potent Pan-Raf inhibitors with increased solubility to overcome drug resistance” (Eur J Med Chem, 2019).

A short description of data set [1]: AUC (0 to infinity) in Sprague-Dawley rat at […], iv by LC-MS/MS analysis. It counts as ADME, organism-based. The conditions noted are these: in vivo. On the set-up: dose 2.5 mg/kg, time infinity, route intravenous.
Data set [2] in a line: AUC (0 to t) in Sprague-Dawley rat at 10 mg/kg, po by LC-MS/MS analysis. Type of data set: ADME, organism-based. The conditions noted are these: in vivo.
Data set [3] in a line: Half life in Sprague-Dawley rat at […], iv by LC-MS/MS analysis. Type of data set: ADME, organism-based. The conditions noted are these: in vivo.
Data set [4] can be described thus: Volume of distribution at steady state in Sprague-Dawley rat at […], iv by LC-MS/MS analysis. The settings on record: in vivo, read-out: Vdss. It counts as ADME, organism-based.
The nature of data set [5]: Clearance in Sprague-Dawley rat at […], iv by LC-MS/MS analysis. Type of data set: ADME, organism-based. The conditions noted are these: in vivo.
Data set [6] in a line: Cmax in Sprague-Dawley rat at 10 mg/kg, po by LC-MS/MS analysis. It counts as ADME, organism-based. Details: dose 10 mg/kg, route oral. The conditions noted are these: in vivo.
The nature of data set [7]: Oral bioavailability in Sprague-Dawley rat at 10 mg/kg by LC-MS/MS analysis. It counts as ADME, organism-based. The conditions noted are these: in vivo.
The nature of data set [8]: Tmax in Sprague-Dawley rat at […], iv by LC-MS/MS analysis. Type of data set: ADME, organism-based. The conditions noted are these: in vivo.
Data set [9] is described as follows: AUC (0 to t) in Sprague-Dawley rat at […], iv by LC-MS/MS analysis. It counts as ADME, organism-based. The settings on record: in vivo.
Data set [10] is described as follows: Cmax in Sprague-Dawley rat at […], iv by LC-MS/MS analysis. It counts as ADME, organism-based. On the set-up: dose 2.5 mg/kg, route intravenous. The settings on record: in vivo.
Data set [11] can be described thus: AUC (0 to infinity) in Sprague-Dawley rat at 10 mg/kg, po by LC-MS/MS analysis. It counts as ADME, organism-based. Details: dose 10 mg/kg, route oral, time infinity. The settings on record: in vivo.
The nature of data set [12]: Half life in human liver microsomes at 0.5 uM by LC-MS/MS analysis. Type of data set: ADME, Microsome.
Data set [13] can be described thus: Tmax in Sprague-Dawley rat at 10 mg/kg, po by LC-MS/MS analysis. It counts as ADME, organism-based. The settings on record: in vivo.

For the compound `Cc1ccc(C(=O)Nc2ccc(OCC3CCN(C)CC3)c(C(F)(F)F)c2)cc1NC(=O)C1(c2ncnc3[nH]ccc23)CC1`, the AUC(0-inf) is 607 ng·h/mL in [1] and 522 ng·h/mL in data set [11]. Also, the AUC(0-t) in data set [2] was 503 ng·h/mL; in data set [9], 549 ng·h/mL. Moreover, the half-life in data set [3] is 7.7 h. Besides, the Vd in data set [4] came to 45.7 L/kg. This compound had a clearance in data set [5] of 68.3 mL/min/kg. Further, the results for the Cmax in [6] and in data set [10] were 72.1 ng/mL and 272 ng/mL, respectively. The bioavailability in data set [7] came out at 22.9%. Moreover, the time to peak (Tmax) in data set [8] came to 4.98 min; in data set [13] it was 4 h. Moreover, the half-life at 0.5 µM in data set [12] is 6.5 h.

The compound `CNC(=O)c1cc(Oc2ccc(NC(=O)Nc3ccc(Cl)c(C(F)(F)F)c3)cc2)ccn1` [SORAFENIB] showed a half-life at 0.5 µM in data set [12] of 5.6 h.
